Activity calls are given as the source filed them. The rule behind the calls is not given here.
Columns and labels:
[1] = molecular target: T1, Prostaglandin G/H synthase 1 (Ovis aries, UniProt P05979); assay: Inhibition of ovine COX-1 using arachidonic acid as substrate assessed as PGE2 production preincubated for 10 mins followed by substrate addition incubated for 2 mins by ELISA
T1 sequence (P05979 whole entry): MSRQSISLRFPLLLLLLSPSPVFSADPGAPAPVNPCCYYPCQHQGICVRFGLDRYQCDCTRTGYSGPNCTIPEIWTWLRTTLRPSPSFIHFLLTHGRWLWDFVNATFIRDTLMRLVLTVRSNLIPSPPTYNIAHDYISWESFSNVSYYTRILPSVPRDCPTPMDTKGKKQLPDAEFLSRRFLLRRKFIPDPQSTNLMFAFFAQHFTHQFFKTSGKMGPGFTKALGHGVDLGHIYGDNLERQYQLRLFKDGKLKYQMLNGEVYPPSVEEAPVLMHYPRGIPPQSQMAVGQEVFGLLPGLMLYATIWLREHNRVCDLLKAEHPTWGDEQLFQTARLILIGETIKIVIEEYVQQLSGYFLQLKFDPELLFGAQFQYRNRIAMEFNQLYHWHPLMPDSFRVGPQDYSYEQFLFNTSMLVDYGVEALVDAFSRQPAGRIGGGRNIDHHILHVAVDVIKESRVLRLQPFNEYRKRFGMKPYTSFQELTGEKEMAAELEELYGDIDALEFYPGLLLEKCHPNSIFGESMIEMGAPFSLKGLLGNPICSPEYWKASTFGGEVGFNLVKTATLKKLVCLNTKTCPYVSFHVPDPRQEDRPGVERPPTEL

[2] = molecular target: T2, Prostaglandin G/H synthase 2 (Homo sapiens, UniProt P35354); assay: Inhibition of human recombinant COX-2 using arachidonic acid as substrate assessed as PGE2 production preincubated for 10 mins followed by substrate addition incubated for 2 mins by ELISA
T2 sequence (P35354 whole entry): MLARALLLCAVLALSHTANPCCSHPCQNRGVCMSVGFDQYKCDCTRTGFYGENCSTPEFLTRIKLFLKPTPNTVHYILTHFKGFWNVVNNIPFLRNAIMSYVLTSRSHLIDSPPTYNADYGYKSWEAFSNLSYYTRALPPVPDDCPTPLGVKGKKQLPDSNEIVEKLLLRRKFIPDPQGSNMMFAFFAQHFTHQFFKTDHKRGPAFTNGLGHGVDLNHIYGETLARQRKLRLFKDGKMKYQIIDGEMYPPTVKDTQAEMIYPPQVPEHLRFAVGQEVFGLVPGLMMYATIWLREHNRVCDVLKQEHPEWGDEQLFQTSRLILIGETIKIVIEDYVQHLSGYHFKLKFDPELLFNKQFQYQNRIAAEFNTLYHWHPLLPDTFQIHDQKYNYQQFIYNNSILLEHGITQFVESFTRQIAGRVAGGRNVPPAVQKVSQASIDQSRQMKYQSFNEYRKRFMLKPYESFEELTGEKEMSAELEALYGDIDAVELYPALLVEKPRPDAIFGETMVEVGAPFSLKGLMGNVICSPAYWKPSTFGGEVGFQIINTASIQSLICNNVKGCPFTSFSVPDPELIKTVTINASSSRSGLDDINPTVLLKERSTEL

[3] = Antioxidant activity assessed as DPPH free radical scavenging activity at 200 uM after 30 mins by spectrophotometric analysis; assay type: physicochemical; conditions: 0.5 h
[4] = Selectivity index ratio of IC50 for ovine COX-1 to IC50 for human recombinant COX-2
[5] = Antioxidant activity assessed as DPPH free radical scavenging activity at 0.06 to 200 uM after 30 mins by spectrophotometric analysis; assay type: physicochemical; conditions: 0.5 h
Mus musculus [6] = assay: Antiinflammatory activity in carrageenan-induced BALB/c mouse paw edema model assessed as decrease in paw volume administered orally 30 mins prior to carrageenan challenge measured after 1 to 6 hrs by plethysmometric analysis; assay type: functional, organism-based
Mus musculus [7] = assay: Antiinflammatory activity in carrageenan-induced BALB/c mouse paw edema model assessed as decrease in paw volume at 20 mg/kg, po administered 30 mins prior to carrageenan challenge measured after 6 hrs by plethysmometric analysis relative to control; assay type: functional; set-up: scale not given: the % may be the effect or the level left
Mus musculus [8] = assay: Antiinflammatory activity in BALB/c mouse paw edema model assessed as decrease in myeloperoxidase activity in paw exudates at 20 mg/kg, po administered 30 mins prior to carrageenan challenge measured after 4 hrs by microplate reader analysis relative to control; assay type: functional; set-up: scale not given: the % may be the effect or the level left
Mus musculus [9] = assay: Antiinflammatory activity in carrageenan-induced BALB/c mouse peritonitis model assessed as decrease in nitric oxide level in peritoneal exudates at 10 to 20 mg/kg administered via oral gavage 30 mins prior to carrageenan challenge measured after 4 hrs by Griess method; assay type: functional, organism-based
HepG2 [10] = assay: Antioxidant activity in human HepG2 cells assessed as reduction of H2O2-induced ROS level at 10 uM pretreated for 20 hrs followed by H2O2 stimulation for 30 mins by DCF-DA-based fluorescence analysis relative to control; assay type: functional; set-up: scale not given: the % may be the effect or the level left
Mus musculus [11] = assay: Antiinflammatory activity in BALB/c mouse paw edema model assessed as decrease in myeloperoxidase activity in paw exudates at 10 mg/kg, po administered 30 mins prior to carrageenan challenge measured after 4 hrs by microplate reader analysis relative to control; assay type: functional; set-up: scale not given: the % may be the effect or the level left
HepG2 [12] = assay: Cytotoxicity against human HepG2 cells at 2.5 to 10 uM by MTT assay; assay type: cell-based; conditions: hepg2, 10 µM
Mus musculus [13] = assay: Antiinflammatory activity in carrageenan-induced BALB/c mouse paw edema model assessed as decrease in paw volume at 10 mg/kg, po administered 30 mins prior to carrageenan challenge measured after 6 hrs by plethysmometric analysis relative to control; assay type: functional; set-up: scale not given: the % may be the effect or the level left
Mus musculus [14] = assay: Antiinflammatory activity in carrageenan-induced BALB/c mouse peritonitis model assessed as decrease in number of leukocytes in peritoneal exudates administered via oral gavage 30 mins prior to carrageenan challenge measured after 4 hrs; assay type: functional, organism-based
Mus musculus [15] = assay: Antiinflammatory activity in carrageenan-induced BALB/c mouse peritonitis model assessed as decrease in number of leukocytes in peritoneal exudates at 10 to 20 mg/kg administered via oral gavage 30 mins prior to carrageenan challenge measured after 4 hrs; assay type: functional, organism-based

SMILES | IC50 [1] | IC50 [2] | Activity [3] | Ratio IC50 [4] | Activity [5] | Activity (Mus musculus [6]) | Activity (Mus musculus [7]) | Activity (Mus musculus [8]) | Activity (Mus musculus [9]) | Activity (HepG2 [10]) | Activity (Mus musculus [11]) | Activity (HepG2 [12]) | Activity (Mus musculus [13]) | Activity (Mus musculus [14]) | Activity (Mus musculus [15])
O=C(O)c1cc(/C=C/c2ccc(O)cc2)ccc1O | 421 µM | > 500 µM | Active | – | – | – | – | – | – | – | – | – | – | – | –
O=C(O)c1cc(/C=C/c2cc(O)cc(O)c2)ccc1O | 3.2 µM | 10.3 µM | – | 0.31 | Active | – | – | – | – | – | – | – | – | – | –
COC(=O)c1cc(/C=C/c2cc(O)cc(O)c2)ccc1O | 4.1 µM | 1 µM | – | 4.1 | Active | Dose-dependent effect | 74% | 60% | inactive | 33% | 60% | Non-toxic | 59% | Dose-dependent effect | –
Oc1ccc(/C=C/c2cc(O)cc(O)c2)cc1 [RESVERATROL] | – | – | – | – | Active | Dose-dependent effect | 52% | 53% | inactive | 25% | – | Non-toxic | 34% | – | Active
COc1ccc(/C=C/c2cc(OC)cc(OC)c2)cc1 [TRISMETHOXYRESVERATROL] | 1.23 µM | 1.67 µM | – | 0.74 | – | Dose-dependent effect | 34% | inactive | inactive | 42% | – | Non-toxic | 19% | Dose-dependent effect | –
